Reference: ChEMBL document CHEMBL4219107, “Synthesis and evaluation of 1H-pyrrole-2,5-dione derivatives as cholesterol absorption inhibitors for suppressing the formation of foam cells and inflammatory response” (Bioorg Med Chem, 2018)
The source made the active and inactive calls. No cut-off for these calls is given here.

Experiments:
[1] = Cytotoxicity against HEK293 cells after 48 hrs by MTT assay; assay type: cell-based; settings: human, read-out: LC50
[2] = Cytotoxicity against mouse RAW264.7 cells after 48 hrs by MTT assay; assay type: cell-based; settings: read-out: LC50
[3] = biological target: T1, NPC1-like intracellular cholesterol transporter 1 (Homo sapiens) (UniProt Q9UHC9); test: Inhibition of NPC1L1 in human Caco2 cells assessed as decrease in cholesterol uptake at 100 uM preincubated for 24 hrs followed by stigmosterol substrate addition measured after 24 hrs by HPLC method relative to control; assay type: cell-based
T1 sequence (whole entry): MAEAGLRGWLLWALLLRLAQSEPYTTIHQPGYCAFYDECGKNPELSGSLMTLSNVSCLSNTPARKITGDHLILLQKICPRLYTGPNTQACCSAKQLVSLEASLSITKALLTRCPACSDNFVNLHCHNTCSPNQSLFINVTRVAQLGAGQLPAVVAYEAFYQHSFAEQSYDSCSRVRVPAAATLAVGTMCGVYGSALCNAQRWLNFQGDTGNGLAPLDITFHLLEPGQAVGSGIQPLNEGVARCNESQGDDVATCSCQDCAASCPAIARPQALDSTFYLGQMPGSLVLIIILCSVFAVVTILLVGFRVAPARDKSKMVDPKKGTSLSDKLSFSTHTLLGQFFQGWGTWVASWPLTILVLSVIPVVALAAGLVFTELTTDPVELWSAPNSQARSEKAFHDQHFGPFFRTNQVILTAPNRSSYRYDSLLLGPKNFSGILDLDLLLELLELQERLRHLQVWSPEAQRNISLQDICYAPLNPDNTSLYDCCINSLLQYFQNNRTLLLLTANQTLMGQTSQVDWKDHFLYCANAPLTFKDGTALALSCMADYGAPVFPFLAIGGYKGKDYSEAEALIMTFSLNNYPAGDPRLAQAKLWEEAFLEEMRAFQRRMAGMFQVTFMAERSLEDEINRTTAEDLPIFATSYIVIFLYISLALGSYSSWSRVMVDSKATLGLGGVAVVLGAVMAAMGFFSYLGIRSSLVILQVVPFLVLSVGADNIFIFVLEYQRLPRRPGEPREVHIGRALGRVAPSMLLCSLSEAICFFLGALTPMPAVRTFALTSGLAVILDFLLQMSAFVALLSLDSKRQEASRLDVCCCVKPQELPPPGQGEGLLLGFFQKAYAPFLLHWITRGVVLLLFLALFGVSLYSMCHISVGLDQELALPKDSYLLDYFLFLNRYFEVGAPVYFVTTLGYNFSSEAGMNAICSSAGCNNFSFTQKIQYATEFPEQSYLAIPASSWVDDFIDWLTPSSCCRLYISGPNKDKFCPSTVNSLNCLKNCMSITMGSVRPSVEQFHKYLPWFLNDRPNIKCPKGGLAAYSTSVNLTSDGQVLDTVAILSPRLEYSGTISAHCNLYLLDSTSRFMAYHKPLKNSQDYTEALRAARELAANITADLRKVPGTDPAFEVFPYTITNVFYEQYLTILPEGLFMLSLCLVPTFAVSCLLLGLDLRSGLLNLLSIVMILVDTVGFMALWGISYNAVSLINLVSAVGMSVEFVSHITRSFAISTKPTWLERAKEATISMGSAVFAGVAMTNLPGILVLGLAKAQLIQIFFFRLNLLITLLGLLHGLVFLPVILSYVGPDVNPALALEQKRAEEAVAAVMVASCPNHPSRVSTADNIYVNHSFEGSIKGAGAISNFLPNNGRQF

[4] = biological target: NPC1-like intracellular cholesterol transporter 1 (Mus musculus) (UniProt Q6T3U4); test: Inhibition of NPC1L1 in mouse RAW264.7 cells assessed as decrease in choleserol-D7 absorption at 30 uM after 72 hrs by LC-MS/MS analysis relative to control; assay type: cell-based
[5] = biological target: NPC1-like intracellular cholesterol transporter 1 (Mus musculus) (UniProt Q6T3U4); test: Inhibition of NPC1L1-mediated cholesterol-methyl-beta-cyclodextrin accumulation in mouse RAW264.7 cells incubated for 72 hrs by Oil Red O/hematoxyline staining based microscopic analysis; assay type: cell-based
[6] = biological target: NPC1-like intracellular cholesterol transporter 1 (Mus musculus) (UniProt Q6T3U4); test: Inhibition of NPC1L1-mediated cholesterol-methyl-beta-cyclodextrin accumulation in mouse RAW264.7 cells assessed as decrease in foam cell formation by measuring decrease in LDH level at 30 uM relative to control; assay type: cell-based; set-up: scale not given: the % may be the effect or the level left
[7] = biological target: NPC1-like intracellular cholesterol transporter 1 (Mus musculus) (UniProt Q6T3U4); test: Inhibition of NPC1L1-mediated cholesterol-methyl-beta-cyclodextrin accumulation in mouse RAW264.7 cells assessed as decrease in foam cell formation by measuring decrease in MDA level at 30 uM relative to control; assay type: cell-based; set-up: scale not given: the % may be the effect or the level left
RAW264.7 [8] = test: Antiinflammatory activity against mouse RAW264.7 cells assessed as decrease in cholesterol-methyl-beta-cyclodextrin-induced TNFalpha release at 30 uM relative to control; assay type: functional; set-up: scale not given: the % may be the effect or the level left
RAW264.7 [9] = test: Antiinflammatory activity against mouse RAW264.7 cells assessed as decrease in cholesterol-methyl-beta-cyclodextrin-induced ROS level at 30 uM relative to control; assay type: functional; set-up: scale not given: the % may be the effect or the level left
[10] = Octanol-water partition coefficient, log P of the compound measured after 4 hrs by HPLC analysis; assay type: physicochemical
[11] = biological target: T1, NPC1-like intracellular cholesterol transporter 1 (Homo sapiens); test: Inhibition of NPC1L1 in human Caco2 cells assessed as decrease in cholesterol uptake at 100 uM preincubated for 24 hrs followed by stigmosterol substrate addition measured after 24 hrs by HPLC method; assay type: cell-based
[12] = biological target: NPC1-like intracellular cholesterol transporter 1 (Mus musculus) (UniProt Q6T3U4); test: Inhibition of NPC1L1-mediated cholesterol-methyl-beta-cyclodextrin accumulation in mouse RAW264.7 cells assessed as decrease in foam cell formation by measuring decrease in LDH level; assay type: cell-based
[13] = biological target: NPC1-like intracellular cholesterol transporter 1 (Mus musculus) (UniProt Q6T3U4); test: Inhibition of NPC1L1-mediated cholesterol-methyl-beta-cyclodextrin accumulation in mouse RAW264.7 cells assessed as decrease in foam cell formation by measuring decrease in MDA level; assay type: cell-based
RAW264.7 [14] = test: Antiinflammatory activity against mouse RAW264.7 cells assessed as decrease in cholesterol-methyl-beta-cyclodextrin-induced TNFalpha release; assay type: functional, cell-based
RAW264.7 [15] = test: Antiinflammatory activity against mouse RAW264.7 cells assessed as decrease in cholesterol-methyl-beta-cyclodextrin-induced ROS level; assay type: functional, cell-based

Sequence of NPC1-like intracellular cholesterol transporter 1 (Mus musculus) (Q6T3U4 21-1333 limits assumed): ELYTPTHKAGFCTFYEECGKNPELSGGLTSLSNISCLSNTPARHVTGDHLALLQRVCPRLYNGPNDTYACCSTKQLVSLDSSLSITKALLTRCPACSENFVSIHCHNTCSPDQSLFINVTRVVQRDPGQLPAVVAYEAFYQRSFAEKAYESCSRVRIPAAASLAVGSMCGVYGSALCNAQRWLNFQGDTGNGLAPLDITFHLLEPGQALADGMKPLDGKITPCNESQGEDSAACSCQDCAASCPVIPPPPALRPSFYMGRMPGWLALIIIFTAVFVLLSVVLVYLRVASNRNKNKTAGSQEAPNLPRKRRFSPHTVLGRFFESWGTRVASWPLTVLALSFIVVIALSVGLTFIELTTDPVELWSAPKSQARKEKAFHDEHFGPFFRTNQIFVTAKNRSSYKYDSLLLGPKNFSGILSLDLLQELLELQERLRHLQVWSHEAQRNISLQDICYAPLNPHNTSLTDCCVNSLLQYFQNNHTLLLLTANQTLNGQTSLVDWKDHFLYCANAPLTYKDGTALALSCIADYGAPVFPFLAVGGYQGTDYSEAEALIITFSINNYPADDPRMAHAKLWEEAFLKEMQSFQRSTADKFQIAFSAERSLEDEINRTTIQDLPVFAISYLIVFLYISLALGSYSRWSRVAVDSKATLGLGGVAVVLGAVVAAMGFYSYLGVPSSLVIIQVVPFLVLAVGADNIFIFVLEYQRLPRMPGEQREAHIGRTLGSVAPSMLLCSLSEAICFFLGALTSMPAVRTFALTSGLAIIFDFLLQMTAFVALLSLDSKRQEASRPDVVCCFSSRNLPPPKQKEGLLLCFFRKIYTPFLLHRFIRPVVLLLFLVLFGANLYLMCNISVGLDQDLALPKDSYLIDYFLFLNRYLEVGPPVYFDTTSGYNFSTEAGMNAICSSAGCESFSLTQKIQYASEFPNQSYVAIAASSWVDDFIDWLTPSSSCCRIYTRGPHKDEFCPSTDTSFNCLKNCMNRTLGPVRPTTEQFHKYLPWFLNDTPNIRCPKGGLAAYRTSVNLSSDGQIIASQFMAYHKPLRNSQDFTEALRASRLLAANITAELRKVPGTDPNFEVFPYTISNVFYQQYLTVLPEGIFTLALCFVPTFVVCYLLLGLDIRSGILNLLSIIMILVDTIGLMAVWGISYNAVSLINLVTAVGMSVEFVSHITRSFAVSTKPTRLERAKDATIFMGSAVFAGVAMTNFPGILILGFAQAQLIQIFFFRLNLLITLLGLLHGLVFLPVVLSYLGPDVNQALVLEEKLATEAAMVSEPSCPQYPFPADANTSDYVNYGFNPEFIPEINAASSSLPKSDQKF

## O=C1[C@H](CC[C@H](O)c2ccc(F)cc2)[C@@H](c2ccc(O)cc2)N1c1ccc(F)cc1 [EZETIMIBE]
[1]
  CC50 at 48 h: 57.6 µM
[2]
  CC50 at 48 h: 44.2 µM
[3]
  inhibition: 51.3%
[4]
  inhibition: 80.3%
[5]
  inhibition: Dose-dependent effect
[6]
  Activity: 36.4%
[7]
  Activity: 76.3%
RAW264.7 [8]
  Activity: 30.9%
RAW264.7 [9]
  Activity: 46.5%

## CCc1ccc(S(=O)(=O)NCCN2C(=O)C(c3ccc(O)cc3)=C(c3ccc(F)cc3)C2=O)cc1
[1]
  CC50 at 48 h: 80.4 µM
[2]
  CC50 at 48 h: > 100 µM
[10]
  logP at 4 h: 2 to 4
[11]
  inhibition: Active

## CCN(CC)CCOc1ccc(C2=C(c3ccc(F)cc3)C(=O)N(CCC(O)(c3ccccc3)c3ccccc3)C2=O)cc1
[1]
  CC50 at 48 h: 31.5 µM
[2]
  CC50 at 48 h: 32.7 µM
[3]
  inhibition: 69.6 to 72.6%
[10]
  logP at 4 h: > 5

## O=C1C(c2ccc(F)cc2)=C(c2ccc(OCCCS(=O)(=O)O)cc2)C(=O)N1CCC(O)(c1ccccc1)c1ccccc1
[11]
  inhibition: inactive

## CCN(CC)CCCCOc1ccc(C2=C(c3ccc(F)cc3)C(=O)N(CCC(O)(c3ccccc3)c3ccccc3)C2=O)cc1
[1]
  CC50 at 48 h: 47.3 µM
[2]
  CC50 at 48 h: 43.2 µM
[3]
  inhibition: 69.6 to 72.6%
[10]
  logP at 4 h: > 5

## O=C1C(c2ccc(F)cc2)=C(c2ccc(OCCCCS(=O)(=O)O)cc2)C(=O)N1CCC(O)(c1ccccc1)c1ccccc1
[11]
  inhibition: inactive

## CCc1ccc(S(=O)(=O)NCCCCN2C(=O)C(c3ccc(F)cc3)=C(c3ccc(OCC(=O)NCC(=O)NCC(=O)O)cc3)C2=O)cc1
[1]
  CC50 at 48 h: > 100 µM
[2]
  CC50 at 48 h: > 100 µM
[10]
  logP at 4 h: 2 to 4
[11]
  inhibition: Active

## O=C1C(c2ccc(O)cc2)=C(c2ccc(F)cc2)C(=O)N1CCCNS(=O)(=O)c1ccc(OC(F)(F)F)cc1
[1]
  CC50 at 48 h: 24.8 µM
[2]
  CC50 at 48 h: 41.2 µM
[10]
  logP at 4 h: 2 to 4
[11]
  inhibition: Active

## O=C1C(c2ccc(F)cc2)=C(c2ccc(OCCS(=O)(=O)O)cc2)C(=O)N1CCC(O)(c1ccccc1)c1ccccc1
[11]
  inhibition: inactive

## CCc1ccc(S(=O)(=O)NCCCN2C(=O)C(c3ccc(O)cc3)=C(c3ccc(F)cc3)C2=O)cc1
[1]
  CC50 at 48 h: 11.5 µM
[2]
  CC50 at 48 h: 17.2 µM
[10]
  logP at 4 h: 2 to 4
[11]
  inhibition: Active

## O=C1C(c2ccc(O)cc2)=C(c2ccc(F)cc2)C(=O)N1CCCNS(=O)(=O)c1ccc(C(F)(F)F)cc1
[1]
  CC50 at 48 h: 19.7 µM
[2]
  CC50 at 48 h: 34.3 µM
[10]
  logP at 4 h: 2 to 4
[11]
  inhibition: Active

## CCN(CC)CCCOc1ccc(C2=C(c3ccc(F)cc3)C(=O)N(CCC(O)(c3ccccc3)c3ccccc3)C2=O)cc1
[1]
  CC50 at 48 h: 32.7 µM
[2]
  CC50 at 48 h: 37.6 µM
[3]
  inhibition: 69.6 to 72.6%
[10]
  logP at 4 h: > 5

## O=C1C(c2ccc(O)cc2)=C(c2ccc(F)cc2)C(=O)N1CCC(O)(c1ccccc1)c1ccccc1
[1]
  CC50 at 48 h: > 100 µM
[2]
  CC50 at 48 h: > 100 µM
[4]
  inhibition: 67.9%
[10]
  logP at 4 h: 2 to 4
[5]
  inhibition: Dose-dependent effect
[6]
  Activity: 33.3%
[7]
  Activity: 79.6%
RAW264.7 [8]
  Activity: 35.1%
RAW264.7 [9]
  Activity: 51%
[11]
  inhibition: Active
[12]
  inhibition: Dose-dependent effect
[13]
  inhibition: Dose-dependent effect
RAW264.7 [14]
  Activity: Dose-dependent effect
RAW264.7 [15]
  Activity: Dose-dependent effect

## Cc1ccc(S(=O)(=O)NCCCCN2C(=O)C(c3ccc(F)cc3)=C(c3ccc(OCC(=O)NCC(=O)NCC(=O)O)cc3)C2=O)cc1
[1]
  CC50 at 48 h: > 100 µM
[2]
  CC50 at 48 h: > 100 µM
[10]
  logP at 4 h: 2 to 4
[11]
  inhibition: Active
